Test results as given in ChEMBL document CHEMBL1124218, “Inhibition of murine thymidylate synthase and human dihydrofolate reductase by 5,8-dideaza analogues of folic acid and aminopterin” (J Med Chem, 1988).
pIC50: −log10 of the molar value.

Molecular target: Thymidylate synthase (Mus musculus, UniProt P07607)
Assay: Inhibitory activity against thymidylate synthase isolated from L1210 leukemia cells
Type: cell-free
Settings: read-out: I50

Thymidylate synthase, sequence (P07607 whole entry): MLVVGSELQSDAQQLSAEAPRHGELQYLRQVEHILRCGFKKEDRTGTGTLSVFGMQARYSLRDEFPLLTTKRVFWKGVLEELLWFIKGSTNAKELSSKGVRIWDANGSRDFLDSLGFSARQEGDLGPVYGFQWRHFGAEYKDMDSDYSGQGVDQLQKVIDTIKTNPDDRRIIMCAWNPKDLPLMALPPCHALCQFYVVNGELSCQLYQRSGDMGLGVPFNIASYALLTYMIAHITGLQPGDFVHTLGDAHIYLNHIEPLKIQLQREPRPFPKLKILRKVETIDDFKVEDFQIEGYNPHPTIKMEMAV

`Nc1nc(N)c2cc(N(C=O)Cc3ccc(C(=O)NC(CCC(=O)O)C(=O)O)cc3)ccc2n1` (stereo not drawn) and `Nc1nc(N)c2cc(CN(C=O)c3ccc(C(=O)NC(CCC(=O)O)C(=O)O)cc3)ccc2n1` (stereo not drawn) cannot be ordered by pIC50: < 5.00 for the first, < 5.00 for the second.

First: Nc1nc(N)c2cc(CNc3ccc(C(=O)NC(CCC(=O)O)C(=O)O)cc3)ccc2n1 (stereo not drawn)
Second: Nc1nc(N)c2cc(NCc3ccc(C(=O)NC(CCC(=O)O)C(=O)O)cc3)ccc2n1 (stereo not drawn)
The pIC50 of the first is 0.96 log units lower: 5.30 for the first, 6.26 for the second.

Compared with `Cc1c(N(C)Cc2ccc(C(=O)NC(CCC(=O)O)C(=O)O)cc2)ccc2nc(N)nc(O)c12` (stereo not drawn), `Cc1c(NCc2ccc(C(=O)NC(CCC(=O)O)C(=O)O)cc2)ccc2nc(N)nc(O)c12` (stereo not drawn) is 0.49 log units lower in pIC50: 6.15 for the first, 5.66 for the second.

`Nc1nc(O)c2cc(N(C=O)Cc3ccc(C(=O)NC(CCC(=O)O)C(=O)O)cc3)ccc2n1` (stereo not drawn) and `Nc1nc(O)c2cc(CN(C=O)c3ccc(C(=O)NC(CCC(=O)O)C(=O)O)cc3)ccc2n1` (stereo not drawn) are within 0.2 log units of each other in pIC50: 4.96 for the first, 5.01 for the second.

First: Nc1nc(O)c2c(Cl)c(NCc3ccc(C(=O)NC(CCC(=O)O)C(=O)O)cc3)ccc2n1 (stereo not drawn)
Second: Nc1nc(N)c2c(Cl)c(NCc3ccc(C(=O)NC(CCC(=O)O)C(=O)O)cc3)ccc2n1 (stereo not drawn)
The pIC50 of the first is 1.61 log units lower: 5.40 for the first, 7.01 for the second.

Compared with `CN(Cc1ccc(C(=O)NC(CCC(=O)O)C(=O)O)cc1)c1ccc2nc(N)nc(N)c2c1` (stereo not drawn), `CN(Cc1ccc2nc(N)nc(N)c2c1)c1ccc(C(=O)NC(CCC(=O)O)C(=O)O)cc1` (stereo not drawn) is 1.26 log units lower in pIC50: 7.48 for the first, 6.22 for the second.

First: C#CCN(Cc1ccc(C(=O)NC(CCC(=O)O)C(=O)O)cc1)c1ccc2nc(N)nc(O)c2c1 (stereo not drawn)
Second: C#CCN(Cc1ccc(C(=O)NC(CCC(=O)O)C(=O)O)cc1)c1ccc2nc(N)nc(N)c2c1 (stereo not drawn)
The pIC50 of the first is 0.29 log units lower: 5.07 for the first, 5.36 for the second.

`Nc1nc(N)c2c(Cl)c(CNc3ccc(C(=O)NC(CCC(=O)O)C(=O)O)cc3)ccc2n1` (stereo not drawn) and `Cc1c(NCc2ccc(C(=O)NC(CCC(=O)O)C(=O)O)cc2)ccc2nc(N)nc(N)c12` (stereo not drawn) are within 0.2 log units of each other in pIC50: 6.72 for the first, 6.82 for the second.

Going from `Nc1nc(=O)c2cc(NCc3ccc(C(=O)NC(CCC(=O)O)C(=O)O)cc3)ccc2[nH]1` (stereo not drawn) to `CN(Cc1ccc(C(=O)NC(CCC(=O)O)C(=O)O)cc1)c1ccc2nc(N)nc(O)c2c1` (stereo not drawn), the pIC50 rises from 5.89 to 6.70 (0.81 log units). The second is the more potent here.

Compared with `Nc1nc(O)c2cc(CSc3ccc(C(=O)NC(CCC(=O)O)C(=O)O)cc3)ccc2n1` (stereo not drawn), `Nc1nc(O)c2cc(COc3ccc(C(=O)NC(CCC(=O)O)C(=O)O)cc3)ccc2n1` (stereo not drawn) is 1.74 log units lower in pIC50: 6.66 for the first, 4.92 for the second. The first is the more potent here.

First: C=CCN(Cc1ccc(C(=O)NC(CCC(=O)O)C(=O)O)cc1)c1ccc2nc(N)nc(N)c2c1 (stereo not drawn)
Second: C=CCN(Cc1ccc(C(=O)NC(CCC(=O)O)C(=O)O)cc1)c1ccc2nc(N)nc(O)c2c1 (stereo not drawn)
The pIC50 of the first is 0.28 log units higher: 5.49 for the first, 5.21 for the second. The first is the more potent here.

`CN(Cc1ccc2nc(N)nc(O)c2c1)c1ccc(C(=O)NC(CCC(=O)O)C(=O)O)cc1` (stereo not drawn) showed a pIC50 of 6.89.
